The source of these data is patent publication US20040038884A1, “Treatment of tinitus” (priority 2003, published 2004).

Assay [1] concerns alpha9/alpha10 heteromeric acetylcholine receptor. Briefly: Block of the acetylcholine receptor of the inner ear (stated finding, no method given).
Another assay relates to outer hair cells (OHCs). Briefly: Whole-cell patch-clamp recordings of inhibitory postsynaptic currents on outer hair cells. It counts as cell-based, Wistar rats. Particulars: apamine 10 nM; OHCs held at −64 mV, high extracellular K+. A general note: Patch clamp records ionic current or voltage across a cell membrane.

Where no end group is shown, it is not given here.

Protocol for outer hair cells (OHCs): The preparation was performed in a solution containing (in mM) 144 NaCl, 5.8 KCl, 0.1 CaCl2, 2.1 MgCl2, 10 HEPES, 0.7 Na2HPO4, 5.6 glucose, pH adjusted to 7.3 with NaOH. For recordings, OHCs located between half and one turn from the apex of the cochlea were chosen. If necessary, supporting cells were removed with gentle suction from a cleaning pipette carefully avoiding mechanical disturbance of the efferent nerve terminals.
Whole-cell patch-clamp recordings were performed with an Axopatch 200B amplifier (Axon Instruments, Foster City, Calif.) at room temperature (22-25° C.). Electrodes were pulled from quartz glass, had resistances of 2-3 MΩ and were filled with intracellular solution (in mM): 135 KCl, 3.5 MgCl2, 0.1 CaCl2, 5 EGTA, 5 HEPES, 2.5 Na2ATP. The pH of the solution was adjusted to pH 7.3 with KOH. Membrane potential was corrected for the electrode junction potential (−4 mV). Whole-cell series resistance ranged from 4 to 9 MΩ and was not compensated. Currents were filtered at 1 kHz and sampled at 5 kHz.
The specimen were continuously superfused with extracellular solution (in mM: 144 NaCl, 5.8 KCl, 2 CaCl2, 0.9 MgCl2, 10 HEPES, 0.7 Na2HPO4, 5.6 glucose, pH adjusted to 7.3 with NaOH). Chemicals as well as depolarizing solutions were applied via a glass capillary (diameter approximately 80 μm) positioned close to the organ of Corti. […]

With `CC12CC3CC(C)(C1)CC(N)(C3)C2` [memantine, 3.5-dimethyl-1-adamantan-amine], the “block of the acetylcholine receptor” value in assay [1] is “blocked efficiently”.

As to “apamine (CNCKAPETALCARRCQQH; not fully specified (C-terminus, bridges); cysteine pairing not given here; UniProt P01500 28-45, looked up)”, in the assay on outer hair cells (OHCs), the “inhibition of postsynaptic currents (IPSCs)” value is reported as “complete inhibition”.
